# Columns and labels:
# [1] = system: AdipoR2 mRNA; test: AdipoR2 mRNA in skeletal muscle of STZ-treated mice (real-time PCR); assay type: in vivo; conditions: FIG. 2D
# Method: (§1) STZ Treatments Diabetes was induced by a double intraperitoneal injection of 0.2-0.3 ml of 50 mM sodium citrate solution (pH 4.5) containing STZ (200 mg/kg body weight). Control (non-STZ) mice were injected with 50 mM sodium citrate solution (pH 4.5). Three days after injection, plasma glucose levels were checked and diabetes was confirmed (glucose level >250 mg/dl). A combination of human regular insulin (1 units/kg; Eli Lilly, Indianapolis, Ind.), each given in 0.2 ml of saline was administered to the STZ+ insulin group. The mice in the STZ+ vehicle and non-STZ groups received 0.2 ml of saline injected both intraperitoneally. After injection of INS or saline, the animals were fasted for 6 h and then hindlim's skeletal muscles were removed.
# (§2) Quantitative analysis of AdipoR1 and R2 transcripts by Northern blot and Real-time PCR Total RNA was prepared from cells or tissues with TRIzol (GIBCO/BRL) according to the manufacturer's instructions. For quantification of AdipoRs mRNAs, we employed the real-time PCR method (14). The primer sets and the probes for mAdipoR1,2 were as follows; the forward primer for mAdipoR1 was […], the reverse primer, […] and the probe, […]; the forward primer for mAdipoR2 was […], the reverse primer, […] and the probe, […]. The relative amount of each AdipoR transcript was normalized to the amount of actin transcript in the same cDNA (14).
# [2] = system: AdipoR1 mRNA; test: AdipoR1 mRNA in skeletal muscle of STZ-treated mice (real-time PCR); assay type: in vivo; conditions: FIG. 2C
# Method: as §1, §2
# [3] = Plasma insulin and plasma glucose in STZ-treated mice without or with insulin; assay type: in vivo
# Excerpt: Animals Fifteen-week-old ob/ob mice and their wild-type C57BL/6 mice were obtained from CharlesRiver Breeding Laboratories (Wilmington, Mass.). Male mice were housed in colony cages, maintained on a 12-h light/12-h dark cycle. Our high-fat diet contains oil 1152 g (from Benibana, Japan; safflower oil [high-oleic type] contained 46% oleic acid (18:1n-9) and 45% linoleic acid (18:2n-6) from total fatty acids), casein 1191.6 g (Oriental Yeast, Tokyo, Japan, No.19), sucrose 633.6 g (Oriental Yeast, No. 13), vitamin mix 50.4 g (Oriental Yeast, No. 20 (AIN76), mineral mix 352.8 g (Oriental Yeast, No.25 (AIN76), cellulose powder 201.6 g (Oriental Yeast, No.19), DL-methionine 18 g (Wako Pure Chemicals, Osaka, Japan), water 360 ml; total 3600 g (20). Plasma insulin was measured by an insulin immunoassay (Shibayagi, Gunma, Japan). The animal care and procedures were approved by the Animal Care Committee of the University of Tokyo.
# as §1
# [4] = system: AMPK; test: Adiponectin tolerance test: AMPK phosphorylation in skeletal muscle (Western blot); assay type: in vivo, mice; conditions: 50 μg/10 g body weight, 5 min, FIGS. 5C, 5D
# Method: Generation of recombinant adiponectin, adiponectin tolerance test and Western blot analysis Bacterially expressed murine full-length adiponectin (Ad) was generated as previously described (10, 14). […] Skeletal muscles were isolated 5 min after adiponectin injection. Phosphorylation and amount of AMPK in keletal muscles were determined (10, 14).
# [5] = system: membrane fractions of skeletal muscle; test: [125I]adiponectin binding assay on membrane fractions of skeletal muscle; conditions: wild-type vs ob/ob mice; FIGS. 5A, 5B
# Method: Binding Assay Synthetic adiponectin was ^125I-labeled at Tyr by IODO-beads (Pierce) in the presence of Na^125I (2,000 Ci/mmol, Amersham Pharmacia Biotech) according to the manufacturer's protocol. Membrane fractions of muscles were incubated at 4° C. for 1 hr with binding buffer (ice-cold phosphate-buffered saline/0.1% bovine serum albumin) containing designated concentrations of [^125I]adiponectin (5,000 cpm/ng protein) plus unlabeled competitors. […] The cells were then washed three times with ice-cold phosphate-buffered saline, lysed in 0.1 N NaOH/0.1% SDS, and the cell-bound radioactivity was determined using a γ-counter (14). Nonspecific binding was determined using a 200-fold excess of unlabeled adiponectin. Specific binding was calculated by subtracting nonspecific binding from the total binding. The values presented in the “Results” represent an average of triplicate determinations of 3-10 experiments.
# [6] = skeletal muscle of STZ-treated mice
# [7] = skeletal muscle, STZ-treated mice given insulin
molecule,measurement,setting,value
"CN(N=O)C(=O)N[C@H]1C(O)O[C@H](CO)[C@@H](O)[C@@H]1O (mixture of isomers) [STZ, streptozotocin]",increase in AdipoR2 mRNA,[1]; [6],38%
same,increase in AdipoR1 mRNA,[2]; [6],103%
same,plasma insulin,"[3]; STZ 200 mg/kg intraperitoneal, mice fasted 6 h, FIG. 2A",abolished
same,plasma glucose,"[3]; STZ-treated vs control mice, fasted 6 h, FIG. 2B lanes 1, 2",significant marked increase
insulin: human regular insulin (Eli Lilly) in vivo; insulin added to hepatocytes and C2C12 myocytes in vitro,AdipoR2 mRNA after insulin treatment,[1]; [7],restored nearly completely
same,AdipoR1 mRNA after insulin treatment,[2]; [7],restored nearly completely
same,plasma glucose levels,"[3]; STZ plus insulin (1 units/kg) compared with STZ alone, FIG. 2B lanes 2, 3",reduced
adiponectin: bacterially expressed murine full-length adiponectin; 125I-labeled adiponectin (globular or full-length) in the binding assay (protein) EDDVTTTEELAPALVPPPKGTCAGWMAGIPGHPGHNGTPGRDGRDGTPGEKGEKGDAGLLGPKGETGDVGMTGAEGPRGFPGTPGRKGEPGEAAYVYRSAFSVGLETRVTVPNVPIRFTKIFYNQQNHYDGSTGKFYCNIPGLYYFSYHITVYMKDVKVSLFKKDKAVLFTYDQYQEKNVDQASGSVLLHLEVGDQVWLQVYGDGDHNGLYADNVNDSTFTGFLLYHDTN,AMPK activation in skeletal muscle,[4]; ob/ob mice (implied),unable to activate AMPK
same,AMPK activation in skeletal muscle,[4]; wild-type mice,able to activate AMPK
same,adiponectin binding to the membrane fractions of skeletal muscle,[5],higher binding to the membrane fractions of skeletal muscle of wild-type mice than ob/ob mice
